Data from patent US10479780B2, “Aminopyrazole derivatives” (Chugai Seiyaku Kabushiki Kaisha, priority 2015, dated 2019).

Key:
Type in all cases: biochemical
[1] = biological target: T1, human Lck enzyme (Homo sapiens, UniProt P06239); assay: Lck enzyme inhibitory activity (time-resolved fluorometry, biotinylated peptide phosphorylation); conditions: biotinylated peptide phosphorylation, read-out: LCK_IC50
T1 construct: purchased Carna Biosciences, Inc. 08-170
Procedure, shortened: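 Readout pairs a europium cryptate-labelled anti-phosphotyrosine antibody with XL665-streptavidin, measured by time-resolved fluorescence. IC50 derived from percent inhibition against untreated controls.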

[2] = biological target: T2, human Yes1 enzyme (Homo sapiens, UniProt P07947); assay: Yes1 enzyme inhibitory activity (time-resolved fluorometry, biotinylated peptide phosphorylation); conditions: biotinylated peptide phosphorylation, read-out: YES_IC50
T2 construct: made in house
T2 sequence (P07947 whole entry): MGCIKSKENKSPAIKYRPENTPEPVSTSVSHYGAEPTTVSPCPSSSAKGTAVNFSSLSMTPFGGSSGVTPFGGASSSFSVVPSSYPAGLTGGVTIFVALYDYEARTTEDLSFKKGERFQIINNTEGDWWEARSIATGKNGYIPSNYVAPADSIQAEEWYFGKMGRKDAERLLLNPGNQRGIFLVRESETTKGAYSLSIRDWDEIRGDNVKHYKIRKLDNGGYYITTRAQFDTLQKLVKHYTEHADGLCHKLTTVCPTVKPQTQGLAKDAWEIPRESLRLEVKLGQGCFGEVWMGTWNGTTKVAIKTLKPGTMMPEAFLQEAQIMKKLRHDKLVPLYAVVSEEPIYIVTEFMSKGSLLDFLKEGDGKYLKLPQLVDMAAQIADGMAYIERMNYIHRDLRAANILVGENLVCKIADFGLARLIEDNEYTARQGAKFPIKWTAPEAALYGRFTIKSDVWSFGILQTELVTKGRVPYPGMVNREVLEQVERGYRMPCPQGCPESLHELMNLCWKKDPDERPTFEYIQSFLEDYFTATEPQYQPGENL
Procedure, shortened: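 Inhibition was expressed against a compound-free control to give IC50, using TR-FRET read-out (Eu-cryptate anti-pTyr antibody, streptavidin-XL665).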

[3] = biological target: T3, human Src enzyme (Homo sapiens, UniProt P12931); assay: Src enzyme inhibitory activity (time-resolved fluorometry, biotinylated peptide phosphorylation); conditions: biotinylated peptide phosphorylation, read-out: SRC_IC50
T3 construct: purchased Carna Biosciences, Inc. 08-173
T3 sequence (P12931 whole entry): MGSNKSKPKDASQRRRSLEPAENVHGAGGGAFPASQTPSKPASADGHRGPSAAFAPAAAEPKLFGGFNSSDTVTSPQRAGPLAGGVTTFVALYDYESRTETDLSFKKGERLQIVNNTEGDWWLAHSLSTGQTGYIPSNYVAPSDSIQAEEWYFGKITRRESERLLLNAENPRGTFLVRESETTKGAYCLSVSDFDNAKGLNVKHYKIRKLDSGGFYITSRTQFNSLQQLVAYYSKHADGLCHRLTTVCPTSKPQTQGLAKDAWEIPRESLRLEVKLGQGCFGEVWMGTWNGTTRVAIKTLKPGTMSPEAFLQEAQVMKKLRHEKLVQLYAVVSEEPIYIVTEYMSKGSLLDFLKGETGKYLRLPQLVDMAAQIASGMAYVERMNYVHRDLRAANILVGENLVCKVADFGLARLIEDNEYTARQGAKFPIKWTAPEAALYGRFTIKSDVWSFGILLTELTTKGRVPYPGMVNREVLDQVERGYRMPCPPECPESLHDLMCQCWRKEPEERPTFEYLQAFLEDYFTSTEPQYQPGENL
Procedure, shortened: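 Compounds were tested for blocking tyrosine phosphorylation of a biotinylated peptide substrate by recombinant human Src. Phosphorylated product was quantified by time-resolved fluorometry using europium cryptate and XL665 conjugates, and IC50 was calculated against the compound-free control.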

T1 sequence (P06239 whole entry): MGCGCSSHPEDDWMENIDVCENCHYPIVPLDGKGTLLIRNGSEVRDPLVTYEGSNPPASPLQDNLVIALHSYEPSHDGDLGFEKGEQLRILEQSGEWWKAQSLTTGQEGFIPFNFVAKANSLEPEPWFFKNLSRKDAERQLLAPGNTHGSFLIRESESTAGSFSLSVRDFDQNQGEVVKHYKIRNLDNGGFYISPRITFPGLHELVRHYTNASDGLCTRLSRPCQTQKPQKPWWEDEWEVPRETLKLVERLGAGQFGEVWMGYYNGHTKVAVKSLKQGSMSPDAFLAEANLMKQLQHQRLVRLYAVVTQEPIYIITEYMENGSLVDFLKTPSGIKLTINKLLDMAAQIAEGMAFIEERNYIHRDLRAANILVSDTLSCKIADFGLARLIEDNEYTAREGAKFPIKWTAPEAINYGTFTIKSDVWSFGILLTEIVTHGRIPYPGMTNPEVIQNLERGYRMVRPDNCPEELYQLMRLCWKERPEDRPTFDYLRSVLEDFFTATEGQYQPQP

SMILES | IC50 [1] | IC50 [2] | IC50 [3]
Cc1cc2cc(C(=O)c3cnn(-c4c(C)cc(Oc5ccccc5F)cc4F)c3N)[nH]c2cc1NS(C)(=O)=O [Example 4-2-055, N-[2-[5-amino-1-[2-fluoro-4-(2-fluorophenoxy)-6-methylphenyl]pyrazole-4-carbonyl]-5-methyl-1H-indol-6-yl]methanesulfonamide] | 26 nM | 3 nM | 65 nM
Cc1cc2cc(C(=O)c3cnn(-c4c(C)cc(Oc5cc(F)ccc5F)cc4F)c3N)[nH]c2cc1NS(C)(=O)=O [Example 4-2-057, N-[2-[5-amino-1-[4-(2,5-difluorophenoxy)-2-fluoro-6-methylphenyl]pyrazole-4-carbonyl]-5-methyl-1H-indol-6-yl]methanesulfonamide] | 27 nM | 4.3 nM | 140 nM
Cc1cc2cc(C(=O)c3cnn(-c4c(C)cc(Oc5ccccc5Cl)cc4F)c3N)[nH]c2cc1NS(C)(=O)=O [Example 4-2-058, N-[2-[5-amino-1-[4-(2-chlorophenoxy)-2-fluoro-6-methylphenyl]pyrazole-4-carbonyl]-5-methyl-1H-indol-6-yl]methanesulfonamide] | 69 nM | 4 nM | 180 nM
Cc1cc2cc(C(=O)c3cnn(-c4c(C)cc(Oc5cccc(Cl)c5)cc4F)c3N)[nH]c2cc1NS(C)(=O)=O [Example 4-2-059, N-[2-[5-amino-1-[4-(3-chlorophenoxy)-2-fluoro-6-methylphenyl]pyrazole-4-carbonyl]-5-methyl-1H-indol-6-yl]methanesulfonamide] | 110 nM | 7.7 nM | 390 nM
Cc1cc2cc(C(=O)c3cnn(-c4cnc(Oc5cccc(Cl)c5)cc4C)c3N)[nH]c2cc1NS(C)(=O)=O [Example 4-2-066, N-[2-[5-amino-1-[6-(3-chlorophenoxy)-4-methylpyridin-3-yl]pyrazole-4-carbonyl]-5-methyl-1H-indol-6-yl]methanesulfonamide] | 36 nM | 9.4 nM | 160 nM
Cc1cc2cc(C(=O)c3cnn(-c4cnc(Oc5ccc(F)cc5)cc4C)c3N)[nH]c2cc1NS(C)(=O)=O [Example 4-2-067, N-[2-[5-amino-1-[6-(4-fluorophenoxy)-4-methylpyridin-3-yl]pyrazole-4-carbonyl]-5-methyl-1H-indol-6-yl]methanesulfonamide] | 59 nM | 6.3 nM | 97 nM
Cc1cc2cc(C(=O)c3cnn(-c4c(C)cc(Oc5ccccc5F)cc4F)c3N)[nH]c2cc1NS(=O)(=O)CCCF [Example 4-2-070, N-[2-[5-amino-1-[2-fluoro-4-(2-fluorophenoxy)-6-methylphenyl]pyrazole-4-carbonyl]-5-methyl-1H-indol-6-yl]-3-fluoropropane-1-sulfonamide] | 47 nM | 7.6 nM | 140 nM
Cc1cc2cc(C(=O)c3cnn(-c4c(C)cc(Oc5cccc(F)c5F)cc4F)c3N)[nH]c2cc1NS(=O)(=O)CCCF [Example 4-2-071, N-[2-[5-amino-1-[4-(2,3-difluorophenoxy)-2-fluoro-6-methylphenyl]pyrazole-4-carbonyl]-5-methyl-1H-indol-6-yl]-3-fluoropropane-1-sulfonamide] | 78 nM | 12 nM | 160 nM
Cc1cc2cc(C(=O)c3cnn(-c4cnc(Oc5ccccc5Cl)cc4C)c3N)[nH]c2cc1NS(=O)(=O)CCCF [Example 4-2-074, N-[2-[5-amino-1-[6-(2-chlorophenoxy)-4-methylpyridin-3-yl]pyrazole-4-carbonyl]-5-methyl-1H-indol-6-yl]-3-fluoropropane-1-sulfonamide] | 27 nM | 2.7 nM | 71 nM
Cc1cc2cc(C(=O)c3cnn(-c4cnc(Oc5cccc(Cl)c5)cc4C)c3N)[nH]c2cc1NS(=O)(=O)CCCF [Example 4-2-075, N-[2-[5-amino-1-[6-(3-chlorophenoxy)-4-methylpyridin-3-yl]pyrazole-4-carbonyl]-5-methyl-1H-indol-6-yl]-3-fluoropropane-1-sulfonamide] | 110 nM | 10 nM | 170 nM
Cc1cc2cc(C(=O)c3cnn(-c4cnc(Oc5ccc(F)cc5)cc4C)c3N)[nH]c2cc1NS(=O)(=O)CCCF [Example 4-2-076, N-[2-[5-amino-1-[6-(4-fluorophenoxy)-4-methylpyridin-3-yl]pyrazole-4-carbonyl]-5-methyl-1H-indol-6-yl]-3-fluoropropane-1-sulfonamide] | 62 nM | 18 nM | 130 nM

Stronger by IC50 [1], values ahead:

IC50 [1] | IC50 [2] | IC50 [3] | SMILES
15 nM | 1.5 nM | 62 nM | Cc1cc2cc(C(=O)c3cnn(-c4ccc(Oc5cccc(F)c5F)cc4C)c3N)[nH]c2cc1NS(C)(=O)=O [Example 4-2-054, N-[2-[5-amino-1-[4-(2,3-difluorophenoxy)-2-methylphenyl]pyrazole-4-carbonyl]-5-methyl-1H-indol-6-yl]methanesulfonamide]
24 nM | 3.9 nM | 97 nM | Cc1cc2cc(C(=O)c3cnn(-c4c(C)cc(Oc5cccc(F)c5F)cc4F)c3N)[nH]c2cc1NS(C)(=O)=O [Example 4-2-056, N-[2-[5-amino-1-[4-(2,3-difluorophenoxy)-2-fluoro-6-methylphenyl]pyrazole-4-carbonyl]-5-methyl-1H-indol-6-yl]methanesulfonamide]
15 nM | 2 nM | 58 nM | Cc1cc2cc(C(=O)c3cnn(-c4c(C)cc(Oc5ccccc5)cc4F)c3N)[nH]c2cc1NS(C)(=O)=O [Example 4-2-060, N-[2-[5-amino-1-(2-fluoro-6-methyl-4-phenoxyphenyl)pyrazole-4-carbonyl]-5-methyl-1H-indol-6-yl]methanesulfonamide]
6.5 nM | 0.52 nM | 31 nM | Cc1cc2cc(C(=O)c3cnn(-c4cnc(Oc5ccccc5F)cc4C)c3N)[nH]c2cc1NS(C)(=O)=O [Example 4-2-061, N-(2-(5-Amino-1-(6-(2-fluorophenoxy)-4-methylpyridin-3-yl)-1H-pyrazole-4-carbonyl)-5-methyl-1H-indol-6-yl)methanesulfonamide]
21 nM | 3.2 nM | 130 nM | Cc1cc2cc(C(=O)c3cnn(-c4cnc(Oc5cccc(F)c5F)cc4C)c3N)[nH]c2cc1NS(C)(=O)=O [Example 4-2-062, N-[2-[5-amino-1-[6-(2,3-difluorophenoxy)-4-methylpyridin-3-yl]pyrazole-4-carbonyl]-5-methyl-1H-indol-6-yl]methanesulfonamide]
8.3 nM | 2 nM | 78 nM | Cc1cc2cc(C(=O)c3cnn(-c4cnc(Oc5ccccc5Cl)cc4C)c3N)[nH]c2cc1NS(C)(=O)=O [Example 4-2-063, N-[2-[5-amino-1-[6-(2-chlorophenoxy)-4-methylpyridin-3-yl]pyrazole-4-carbonyl]-5-methyl-1H-indol-6-yl]methanesulfonamide]
14 nM | 2.4 nM | 63 nM | Cc1cc2cc(C(=O)c3cnn(-c4cnc(Oc5c(F)cccc5Cl)cc4C)c3N)[nH]c2cc1NS(C)(=O)=O [Example 4-2-064, N-[2-[5-amino-1-[6-(2-chloro-6-fluorophenoxy)-4-methylpyridin-3-yl]pyrazole-4-carbonyl]-5-methyl-1H-indol-6-yl]methanesulfonamide]
18 nM | 2.2 nM | 44 nM | Cc1cc2cc(C(=O)c3cnn(-c4cnc(Oc5ccccc5C)cc4C)c3N)[nH]c2cc1NS(C)(=O)=O [Example 4-2-065, N-[2-[5-amino-1-[4-methyl-6-(2-methylphenoxy)pyridin-3-yl]pyrazole-4-carbonyl]-5-methyl-1H-indol-6-yl]methanesulfonamide]
21 nM | 1.8 nM | 28 nM | Cc1cc2cc(C(=O)c3cnn(-c4ccc(Oc5ccccc5F)cc4C)c3N)[nH]c2cc1NS(=O)(=O)CCCF [Example 4-2-068, N-[2-[5-amino-1-[4-(2-fluorophenoxy)-2-methylphenyl]pyrazole-4-carbonyl]-5-methyl-1H-indol-6-yl]-3-fluoropropane-1-sulfonamide]
22 nM | 1 nM | 67 nM | Cc1cc2cc(C(=O)c3cnn(-c4ccc(Oc5cccc(F)c5F)cc4C)c3N)[nH]c2cc1NS(=O)(=O)CCCF [Example 4-2-069, N-[2-[5-amino-1-[4-(2,3-difluorophenoxy)-2-methylphenyl]pyrazole-4-carbonyl]-5-methyl-1H-indol-6-yl]-3-fluoropropane-1-sulfonamide]
20 nM | 1.8 nM | 88 nM | Cc1cc2cc(C(=O)c3cnn(-c4cnc(Oc5ccccc5F)cc4C)c3N)[nH]c2cc1NS(=O)(=O)CCCF [Example 4-2-072, N-[2-[5-amino-1-[6-(2-fluorophenoxy)-4-methylpyridin-3-yl]pyrazole-4-carbonyl]-5-methyl-1H-indol-6-yl]-3-fluoropropane-1-sulfonamide]
19 nM | 3.1 nM | 37 nM | Cc1cc2cc(C(=O)c3cnn(-c4cnc(Oc5c(F)cccc5F)cc4C)c3N)[nH]c2cc1NS(=O)(=O)CCCF [Example 4-2-073, N-[2-[5-amino-1-[6-(2,6-difluorophenoxy)-4-methylpyridin-3-yl]pyrazole-4-carbonyl]-5-methyl-1H-indol-6-yl]-3-fluoropropane-1-sulfonamide]
4.3 nM | 0.64 nM | 25 nM | Cc1cc(Oc2ccccc2F)ccc1-n1ncc(C(=O)c2cc3cc(Cl)c(NS(C)(=O)=O)cc3[nH]2)c1N [Example 4-2-077, N-[2-[5-amino-1-[4-(2-fluorophenoxy)-2-methylphenyl]pyrazole-4-carbonyl]-5-chloro-1H-indol-6-yl]methanesulfonamide]
